Source: US20240325451A1, “METHODS OF INDUCING ORGAN TRANSPLANTATION IMMUNE TOLERANCE AND ASSOCIATED COMPOSITIONS AND METHODS” (CITY OF HOPE, priority 2023, published 2024)

System: donor-type and host-type T, B and myeloid cells
Experiment: Mixed chimerism status by flow cytometry
Settings: PB and SPL of Foxp3DTR MCs

diphtheria toxin [DT]
MC status before and after treatment: did not have significant impact
